Assay results published in patent EP4608400B1, “COMPOUND FOR TREATMENT OF PAIN” (Initiator Pharma A/S, priority 2022, dated 2024).
“Also recorded” adds a separate entry of the source.

Legend:
Dopamine (DA) = test: Microdialysis studies in mice brain (cortex, striatum); assay type: in vivo; conditions: 10 mg/kg s.c., n=1-2
Procedure: In a small subset of mice, microdialysis was performed with a probe placed in either the striatum or cortex by use of stereotaxis.

[1] = target: T1, norepinephrine transporter (NET) (Homo sapiens, UniProt P23975); test: Inhibition of human transporter in stable epithelial cell lines (NET); assay type: cell-based; conditions: average of two replicates (n=2)
T1 construct: expressed in transfected cells
Procedure: Compounds were tested for their ability to inhibit the reuptake of the monoamine neurotransmitters dopamine (DA), noradrenaline (NA), and serotonin (5-HT) in synaptosomes as described in WO 97/16451 (NeuroSearch A/S). In addition, the compounds were tested in human epithelial cells expressing human transporters for 5-HT (SERT), dopamine (DAT), and norepinephrine (NET).
The results are the average of two-replicates per experiment (n=2).

[2] = test system: intradermal capsaicin model; test: Phase I crossover study, intradermal capsaicin model: pharmacodynamics; assay type: in vivo, human; conditions: for Pain Score of Brush-evoked Allodynia Using an NRS, Adjusted Mean (MMRM) / Subjective Rating of Pain, Adjusted Mean (MMRM): overall, all timepoints, N=24; for Pain Score of Brush-evoked Allodynia Using an NRS, Adjusted Mean (MMRM): placebo 2.0; for Subjective Rating of Pain, Adjusted Mean (MMRM): placebo 17.1
Text: Participants. The volunteers were males aged 18 to 55 years with a body mass index (BMI) of 18 to 30 kg/m2. They were healthy as determined by a responsible physician, based on a medical evaluation including medical history, physical examination, concomitant medication, vital signs, 12-lead ECG, and clinical laboratory evaluations. The participants must have been in good general health with a skin type compatible with the measures and without significant skin allergies, pigmentary disorders or any active dermatological conditions. […] The participants provided written informed consent, which included compliance with the requirements and restrictions listed in the consent form, including the use of a condom during the trial and for 3 months after their final dose of trial medication, if their partner was a woman of childbearing potential.
Clinical and laboratory data. Prior to and 15, 30, 60, 90 and 120 minutes after administration of capsaicin, measurements of pain, hyperalgesia, allodynia and AF were performed. At 2 hours post-capsaicin injection, subjects completed a quantitative sensory testing (QST) battery at two sites on the volar surface of each forearm. One site was the most recent capsaicin injection site, and the other was at an equivalent point on the opposite forearm. […] There was a minimum washout period of 5 days between treatment periods.
Reconstitution was performed by a Pharmacist at the clinical site prior to dosing.
In order to maintain the blind, a double dummy approach was used.
Subjects were randomised to receive a single administration of a treatment combination during each treatment period. All subjects received each treatment combination once only.
Evaluation methods: Pharmacodynamics was assessed through pain measurements (response to ID injection of capsaicin, measurement of pain using a visual analogue scale, area and pain score of hyperalgesia, area and pain score of allodynia, and AF) and the ID capsaicin model. Subjects also completed a QST battery at two sites on the volar surface of either forearm. The QST battery included the following tests: thermal detection and pain thresholds, mechanical detection and pain thresholds, stimulus/response functions, wind-up ratio and pressure pain threshold.
For measurement of pain, a visual analogue scale (VAS) was used. The VAS consisted of a 100 mm line, with 0 representing "no pain" and 100 representing "worst pain imaginable". Subjects were asked to mark the VAS using a single vertical stroke at the point they considered to appropriately reflect their level of pain from the injection of capsaicin (not general pain). A new VAS was provided for each time point and subjects were not allowed to see their previous VAS responses. The VAS was scored by measuring from the left-hand end of the scale to the point where the subject had marked the line, and the distance in mm was recorded.
Response to pain was also assessed by a numeric rating scale (NRS). For example, by using an 11-point numeric rating scale ranging from 0 ("no pain") to 10 ("worst possible pain") and asking the subject to rate their pain. A NRS scale of 0 to 100 was also used in some assesments.
The thermal tests were performed using a thermode probe (Medoc). Cold and warm detection thresholds were measured first, then cold pain and heat pain thresholds were determined. The mean threshold temperature of 3 consecutive measurements was calculated. All thresholds were obtained with ramped stimuli (1°C/sec) that were terminated when the subject pressed a button. For thermal detection thresholds the ramp back to baseline was 1°C/sec, while for thermal pain thresholds this ramp was chosen at maximum device capacity resulting in approximately a nominal 5°C/sec.
The mechanical detection threshold was measured with a standardised set of modified von Frey nylons that exerted forces upon bending between 0.25 and 512 mN graded by a factor of 2 (1 to 2 seconds contact time). […]

T1 sequence (P23975 whole entry): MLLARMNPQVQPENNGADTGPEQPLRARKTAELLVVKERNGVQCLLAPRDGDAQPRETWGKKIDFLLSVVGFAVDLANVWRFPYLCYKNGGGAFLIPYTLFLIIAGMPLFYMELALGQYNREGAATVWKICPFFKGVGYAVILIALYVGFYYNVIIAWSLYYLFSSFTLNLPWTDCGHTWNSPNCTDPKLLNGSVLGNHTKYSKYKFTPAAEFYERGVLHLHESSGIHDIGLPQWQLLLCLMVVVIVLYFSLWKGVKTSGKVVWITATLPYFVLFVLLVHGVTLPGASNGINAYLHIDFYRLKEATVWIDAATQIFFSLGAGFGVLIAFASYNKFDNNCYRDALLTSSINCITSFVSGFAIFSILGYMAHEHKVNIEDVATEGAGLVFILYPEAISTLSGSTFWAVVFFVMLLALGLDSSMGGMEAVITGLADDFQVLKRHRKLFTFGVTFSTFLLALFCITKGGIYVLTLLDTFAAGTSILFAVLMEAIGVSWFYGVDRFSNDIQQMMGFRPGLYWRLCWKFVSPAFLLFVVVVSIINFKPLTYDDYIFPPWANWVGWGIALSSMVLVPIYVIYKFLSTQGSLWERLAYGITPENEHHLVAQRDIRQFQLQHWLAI

**Q.** How did the “Dopamine (DA) elevation in cortex” value (Dopamine (DA)) turn out when COc1cc2ccc(O[C@@H]3C[C@H]4CC[C@@H](C3)N4)cc2oc1=O [IP2015, exo-7-[(8-azabicyclo[3.2.1]octan-3-yl)oxy]-3-methoxy-chromen-2-one] was run?
**A.** Its value is “increased; also recorded: most pronounced”.

**Q.** What about the “Dopamine (DA) elevation in striatum” value (Dopamine (DA)) of the same compound?
**A.** Its value is “less and only some elevation”.

**Q.** And the IC50 [1]?
**A.** Its IC50 is 95 nM.

**Q.** What about the “area of brush-evoked allodynia compared to placebo” value ([2]; 5 mg IP2015, 120 min after capsaicin injection, P=0.049) of the same compound?
**A.** Its value is “significantly lowered”.

**Q.** What about the “Pain Score of Brush-evoked Allodynia Using an NRS, Adjusted Mean (MMRM)” value ([2]; 5 mg IP2015) of the same compound?
**A.** The value was 1.8.

**Q.** What about the “Subjective Rating of Pain, Adjusted Mean (MMRM)” value ([2]; 5 mg IP2015 single oral dose) of the same compound?
**A.** The value was 15.6 mm.

**Q.** And the “adjusted mean pain score of hyperalgesia compared to placebo” value ([2]; 5 mg and 10 mg IP2015, 300 mg pregabalin, all post-capsaicin injection timepoints)?
**A.** The value was “lower”.

**Q.** What about the “average decrease in hyperalgesic area across all timepoints compared to placebo” value ([2]; 10 mg IP2015) of the same compound?
**A.** Its value is 4 cm^2.

**Q.** What about the “decrease of subjective rating of pain compared to placebo” value (from here on “decrease of subjective rating of pain”) ([2]; 10 mg IP2015, 15 min post capsaicin) of the same compound?
**A.** The value was 7.2 mm.

**Q.** What about the “decrease of subjective rating of pain” value ([2]; 10 mg IP2015, 30 min post capsaicin) of the same compound?
**A.** The value was 8.3 mm.

**Q.** What about the “decrease of subjective rating of pain” value ([2]; 10 mg IP2015, 60 min post capsaicin) of the same compound?
**A.** Its value is 7.5 mm.

**Q.** What about the “Pain Score of Brush-evoked Allodynia Using an NRS, Adjusted Mean (MMRM)” value ([2]; 10 mg IP2015) of the same compound?
**A.** The value was 1.6.

**Q.** And the “overall increase in warm detection threshold between test and control areas (QST)” value ([2]; 10 mg IP2015, p = 0.013, post-hoc analysis)?
**A.** The value was “significant”.

**Q.** And the “pressure pain threshold (QST)” value ([2]; 10 mg IP2015, post-hoc analysis)?
**A.** Its value is “best effects”.

**Q.** What about the “Subjective Rating of Pain, Adjusted Mean (MMRM)” value ([2]; 10 mg IP2015 single oral dose) of the same compound?
**A.** The value was 11.7 mm.

**Q.** And the “thermal sensory limen warm test (QST)” value ([2]; IP2015 versus pregabalin, post-hoc analysis)?
**A.** The value was “improved effects compared to pregabalin”.
